Laboratory results: publication PMC8151276, “An Integrated Approach toward NanoBRET Tracers for Analysis of GPCR Ligand Engagement” (Molecules, 2021)
Where “and” joins values, the source holds several entries; their conditions need not be identical. Equal values may be shown once.

Columns and labels:
Format in all cases: binding
CCR5 = biological target: T1, CCR5 (Homo sapiens, UniProt P51681); test: NanoBRET screen HiBiT-CCR5 in HEK293
T1 construct: purchased Promega (in-house HiBiT-GPCR construct library, NanoBRET)
T1 sequence (P51681 whole entry): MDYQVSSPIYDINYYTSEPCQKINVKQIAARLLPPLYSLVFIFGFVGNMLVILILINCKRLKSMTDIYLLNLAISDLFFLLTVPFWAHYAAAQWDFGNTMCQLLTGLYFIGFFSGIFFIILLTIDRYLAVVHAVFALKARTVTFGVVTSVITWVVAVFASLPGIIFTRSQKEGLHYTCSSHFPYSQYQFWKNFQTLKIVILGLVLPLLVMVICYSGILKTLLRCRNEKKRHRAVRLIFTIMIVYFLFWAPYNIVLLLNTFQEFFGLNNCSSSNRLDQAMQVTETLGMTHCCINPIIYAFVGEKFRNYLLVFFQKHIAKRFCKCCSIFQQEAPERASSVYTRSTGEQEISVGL
Method: (§1) Each tracer candidate was screened across the entire library of HiBiT-GPCR constructs using NanoBRET as the detection modality. As depicted in Figure 4A, the specificity of interactions was evaluated through decrease in BRET due to competitive displacement of a bound tracer by excess parental compound. Each tracer was analyzed for binding to each HiBiT-GPCR fusion in the absence and in the presence of competing parental compound. Briefly, HEK293 cells were transfected with HiBiT-GPCR constructs diluted into promoterless DNA to reduce expression and maximize translocation to the cell surface. Each tracer candidate was then screened at concentrations of 1 μM and 0.1 μM across cells expressing these fusions. Cells were treated for 1.5 h with tracer either alone or in the presence of 20 μM competing parental compound (i.e., control). BRET was measured upon addition of purified LgBiT and subsequent complementation with HiBiT genetically fused to a GPCR. The specificity of interactions was assessed through a decrease in BRET signal due to competitive displacement of the bound tracer. To further gauge the robustness of these interactions, the fold response over the control (i.e., BRETtracer/BRETcontrol) was calculated. We chose a 1.5-fold response, which translates to ≥7-fold signal over noise as the minimal threshold required to score an interaction as positive. […]. Below we highlight the screening results obtained for our exemplary fluorescent tracers based on Clozapine, Amitriptyline and AZD1283.
(§2) HiBiT-GPCR DNA constructs were diluted in 10 mM Tris pH 8 to a final concentration of 0.01 μg/μL, arrayed in 96-well plates and stored at −20 °C. For transfection, HEK293 cells were suspended in Opti-MEM (without phenol red) supplemented with 2% fetal bovine serum (Seradigm) and 100 units/mL penicillin–streptomycin (Gibco) at a final concentration of 220,000 cells/mL and dispensed into white 96-well plates at 90 μL/well. Subsequent transfections and screens were carried using an Agilent Bravo Automated Liquid Handling Platform. First, the 96-well HiBiT DNA arrays were diluted 25-fold in Opti-MEM (without serum or phenol red) to a final concentration of 0.0004 μg/μL and 20 μL of the diluted DNAs were transferred into new 96-well plates. Next, promoterless carrier DNA (1 μg/μL) was diluted 25-fold (0.04 μg/μL) and then dispensed into the diluted arrays at 20 μL/well. Following brief mixing, Viafect transfection reagent (Promega) diluted 16-fold into Opti-MEM was dispensed into the plates at 40 μL/well. After mixing by pipetting, plates were incubated for 10 min on the pipetting station deck. The DNA-transfection reagent complexes were then added to plates containing cells. To facilitate the screen, 10 μL of DNA-transfection reagent complexes were added in duplicates to the top 4 and bottom 4 rows, resulting in two identical 48-well arrays per plate. Plates with transfected cells were incubated for 18–20 h at 37 °C/5% CO2. A screen of each tracer across the entire library using two different concentrations requires duplicate plates of transfected cells. Depending on the number of tracers being screened, transfections can be scaled up using the same ratios. The next day, for each tracer, four 20× screening solutions in tracer dilution buffer (Promega) were prepared: two duplicates at final concentration of 20 μM and two duplicates at a final concentration of 2 μM. A competing unmodified compound was added to one of each duplicate at a final concentration of 400 μM. The four resulting solutions were diluted 4-fold in Opti-MEM without serum or phenol red to generate 5× solutions (5 µM and 0.5 µM tracer +/− 100 μM competing compound). To screen the library, a BioTek MultiFlo FX liquid dispenser was used to dispense 22.5 µL of tracer solution to the top 4 rows and 22.5 µL tracer + competing compound solution to the 4 bottom rows. Plates were briefly mixed on an orbital shaker and incubated for 1.5 h at room temperature. […]

OPRK1 = biological target: T2, OPRK1 (Homo sapiens, UniProt P41145); test: NanoBRET screen HiBiT-OPRK1 in HEK293
T2 construct: purchased Promega (in-house HiBiT-GPCR construct library, NanoBRET)
T2 sequence (P41145 whole entry): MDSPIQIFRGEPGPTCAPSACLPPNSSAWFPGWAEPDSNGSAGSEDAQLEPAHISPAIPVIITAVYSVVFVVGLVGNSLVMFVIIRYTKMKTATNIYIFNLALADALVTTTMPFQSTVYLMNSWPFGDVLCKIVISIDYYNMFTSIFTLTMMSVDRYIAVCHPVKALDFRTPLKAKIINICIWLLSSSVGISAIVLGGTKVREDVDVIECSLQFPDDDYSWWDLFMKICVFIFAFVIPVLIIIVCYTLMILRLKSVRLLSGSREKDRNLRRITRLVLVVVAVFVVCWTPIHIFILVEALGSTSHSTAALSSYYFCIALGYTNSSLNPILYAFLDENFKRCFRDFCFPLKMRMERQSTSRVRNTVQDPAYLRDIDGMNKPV
Method: as §1, §2

CHRM1 = biological target: T3, CHRM1 (Homo sapiens, UniProt P11229); test: NanoBRET screen HiBiT-CHRM1 in HEK293
T3 construct: purchased Promega (in-house HiBiT-GPCR construct library, NanoBRET)
T3 sequence (P11229 1-460): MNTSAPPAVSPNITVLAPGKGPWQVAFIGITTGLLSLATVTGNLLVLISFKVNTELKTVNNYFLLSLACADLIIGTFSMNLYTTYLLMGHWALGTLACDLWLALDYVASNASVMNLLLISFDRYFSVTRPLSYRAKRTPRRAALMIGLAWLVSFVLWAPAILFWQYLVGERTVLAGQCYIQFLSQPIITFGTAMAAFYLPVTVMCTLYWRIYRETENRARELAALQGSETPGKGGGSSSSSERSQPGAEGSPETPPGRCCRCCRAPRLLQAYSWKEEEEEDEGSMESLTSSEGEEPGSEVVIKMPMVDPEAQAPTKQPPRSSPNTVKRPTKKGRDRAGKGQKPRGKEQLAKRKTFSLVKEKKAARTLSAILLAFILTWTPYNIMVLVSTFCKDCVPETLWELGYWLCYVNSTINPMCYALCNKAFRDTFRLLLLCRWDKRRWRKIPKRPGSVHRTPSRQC

CHRM3 = biological target: T4, CHRM3 (Homo sapiens, UniProt P20309); test: NanoBRET screen HiBiT-CHRM3 in HEK293
T4 construct: purchased Promega (in-house HiBiT-GPCR construct library, NanoBRET)
T4 sequence (P20309 whole entry): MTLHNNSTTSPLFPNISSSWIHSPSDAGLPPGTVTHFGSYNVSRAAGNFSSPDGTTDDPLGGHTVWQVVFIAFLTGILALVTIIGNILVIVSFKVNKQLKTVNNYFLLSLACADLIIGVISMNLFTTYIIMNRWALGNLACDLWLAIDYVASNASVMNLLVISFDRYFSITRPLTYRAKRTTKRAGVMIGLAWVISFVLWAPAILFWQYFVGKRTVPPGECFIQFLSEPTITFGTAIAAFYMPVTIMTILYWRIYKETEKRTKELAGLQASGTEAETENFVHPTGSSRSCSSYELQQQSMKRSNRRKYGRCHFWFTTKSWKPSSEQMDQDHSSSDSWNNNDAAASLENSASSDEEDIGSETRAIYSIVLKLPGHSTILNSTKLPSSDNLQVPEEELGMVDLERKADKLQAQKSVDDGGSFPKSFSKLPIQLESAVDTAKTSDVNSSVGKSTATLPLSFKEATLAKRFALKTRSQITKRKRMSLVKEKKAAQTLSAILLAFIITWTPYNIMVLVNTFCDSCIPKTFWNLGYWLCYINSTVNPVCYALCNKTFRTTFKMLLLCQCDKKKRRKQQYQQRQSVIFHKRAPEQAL

HRH1 = biological target: T5, HRH1 (Homo sapiens, UniProt P35367); test: NanoBRET screen HiBiT-HRH1 in HEK293
T5 construct: purchased Promega (in-house HiBiT-GPCR construct library, NanoBRET)
T5 sequence (P35367 whole entry): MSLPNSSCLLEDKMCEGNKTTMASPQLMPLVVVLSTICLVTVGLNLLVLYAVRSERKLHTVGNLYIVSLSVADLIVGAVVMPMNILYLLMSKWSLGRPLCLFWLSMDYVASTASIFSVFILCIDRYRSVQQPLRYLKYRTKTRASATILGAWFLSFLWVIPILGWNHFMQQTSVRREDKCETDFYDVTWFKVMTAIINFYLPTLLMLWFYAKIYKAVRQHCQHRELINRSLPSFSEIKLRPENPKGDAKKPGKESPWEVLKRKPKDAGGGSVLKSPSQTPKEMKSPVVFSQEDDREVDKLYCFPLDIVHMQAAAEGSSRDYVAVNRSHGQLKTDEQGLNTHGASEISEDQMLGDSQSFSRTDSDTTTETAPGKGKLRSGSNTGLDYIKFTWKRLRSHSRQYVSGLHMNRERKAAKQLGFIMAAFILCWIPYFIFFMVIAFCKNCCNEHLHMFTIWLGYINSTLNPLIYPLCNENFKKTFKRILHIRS

[1] = tracer at 0.1μM, listed as amitriptyline-b-2-NB590
[2] = tracer at 1μM, listed as amitriptyline-b-2-NB590

`Cc1nc2n(c(=O)c1CCN1CCC(c3noc4cc(F)ccc34)CC1)CCCC2OC(=O)NCCOCCOCCOCCOCCNC(=O)CCc1ccc2n1[B-](F)(F)[N+]1=C(c3ccc[nH]3)C=CC1=C2` (centres unmarked) [Risperidone-2-NB590] was tested, and the “NanoBRET Fold Response” value (CCR5; CCR5, tracer 0.1μM) was 0.96, the “NanoBRET Fold Response” value (CCR5; CCR5, tracer 1μM) was 0.90 and the “NanoBRET Fold Response” value (OPRK1; OPRK1, tracer 0.1μM) was 0.96. The “NanoBRET Fold Response” value (OPRK1; OPRK1, tracer 1μM) was 0.99.

With `O=C(CCOCCOCCOCCOCCNC(=O)CCc1ccc2n1[B-](F)(F)[N+]1=C(c3ccc[nH]3)C=CC1=C2)NCCCN1CCN(C2=Nc3ccccc3Oc3ccc(Cl)cc32)CC1` [Loxapine-a-2-NB590] the “NanoBRET Fold Response” value (CCR5; CCR5, tracer 0.1μM) was 1.00, the “NanoBRET Fold Response” value (CCR5; CCR5, tracer 1μM) was 1.34 and the “NanoBRET Fold Response” value (CHRM1) was 0.90 and 1.14. The “NanoBRET Fold Response” value (CHRM3) was 0.96 and 1.07, the “NanoBRET Fold Response” value (HRH1) was 3.64 and 4.76 and the “NanoBRET Fold Response” value (OPRK1; OPRK1, tracer 0.1μM) was 1.03. For the same compound, the “NanoBRET Fold Response” value (OPRK1; OPRK1, tracer 1μM) was 0.95.

With `CN(C)CCC=C1c2ccccc2CCc2ccc(C(=O)NCCNC(=O)CCOCCOCCOCCOCCNC(=O)CCc3ccc4n3[B-](F)(F)[N+]3=C(c5ccc[nH]5)C=CC3=C4)cc21` [Amitriptyline-b-2-NB590] the “NanoBRET Fold Response” value (CCR5; [1]) was 1.14, the “NanoBRET Fold Response” value (CCR5; [2]) was 1.07 and the “NanoBRET Fold Response” value (OPRK1; [1]) was 1.23. The “NanoBRET Fold Response” value (OPRK1; [2]) was 1.23.

In the case of `CN(C)CCC=C1c2ccccc2CCc2ccc(C(=O)NCCNC(=O)CCOCCOCCOCCOCCNC(=O)CCc3ccc4n3[B-](F)(F)[N+]3=C(c5ccc[nH]5)C=CC3=C4)cc21` [Amitriptyline-a-2-NB590], the “NanoBRET Fold Response” value (CCR5; tracer at 0.1μM) is reported as 0.99, the “NanoBRET Fold Response” value (CCR5; tracer at 1μM) is reported as 1.01 and the “NanoBRET Fold Response” value (OPRK1; tracer at 0.1μM) is reported as 1.04. For the same compound, the “NanoBRET Fold Response” value (OPRK1; tracer at 1μM) was 1.02.

`O=C(CCc1ccc2n1[B-](F)(F)[N+]1=C(c3ccc[nH]3)C=CC1=C2)NCCOCCOCCNC(=O)OCCOCCN1CCN(C2=Nc3ccccc3Sc3ccccc32)CC1` [Quetiapine-a-2-NB590] was tested, and the “NanoBRET Fold Response” value (CCR5; CCR5, tracer 0.1μM) was 0.95, the “NanoBRET Fold Response” value (CCR5; CCR5, tracer 1μM) was 0.85 and the “NanoBRET Fold Response” value (OPRK1; OPRK1, tracer 0.1μM) was 0.94. The “NanoBRET Fold Response” value (OPRK1; OPRK1, tracer 1μM) was 0.97.

In the case of `Cc1cc2c(s1)Nc1ccccc1N=C2N1CCN(CCCNC(=O)CCOCCOCCOCCOCCNC(=O)CCc2ccc3n2[B-](F)(F)[N+]2=C(c4ccc[nH]4)C=CC2=C3)CC1` [Olanzapine-a-2-NB590], the “NanoBRET Fold Response” value (CCR5; CCR5, tracer 0.1μM) is reported as 1.00, the “NanoBRET Fold Response” value (CCR5; CCR5, tracer 1μM) is reported as 0.89 and the “NanoBRET Fold Response” value (OPRK1; OPRK1, tracer 0.1μM) is reported as 0.92. The “NanoBRET Fold Response” value (OPRK1; OPRK1, tracer 1μM) was 1.16.

With `CN1CCN(C2=Nc3cc(Cl)ccc3Nc3ccc(CNC(=O)CCOCCOCCOCCOCCNC(=O)CCc4ccc5n4[B-](F)(F)[N+]4=C(c6ccc[nH]6)C=CC4=C5)cc32)CC1` [Clozapine-b-2-NB590] the “NanoBRET Fold Response” value (CCR5; CCR5, 0.1μM tracer) was 1.05, the “NanoBRET Fold Response” value (CCR5; CCR5, 1μM tracer) was 0.92 and the “NanoBRET Fold Response” value (OPRK1; OPRK1, 0.1μM tracer) was 0.99. For the same compound, the “NanoBRET Fold Response” value (OPRK1; OPRK1, 1μM tracer) was 0.96.

In the case of `O=C(CCc1ccc2n1[B-](F)(F)[N+]1=C(c3ccc[nH]3)C=CC1=C2)NCc1ccc(C(=O)NCCOCCOCCNCC(O)COc2cccc3ccccc23)cc1` (centres unmarked) [Propranolol-3-NB590], the “NanoBRET Fold Response” value (CCR5; CCR5, 0.1μM) is reported as 1.09, the “NanoBRET Fold Response” value (CCR5; CCR5, 1μM) is reported as 0.96 and the “NanoBRET Fold Response” value (OPRK1; OPRK1, 0.1μM) is reported as 1.08. The “NanoBRET Fold Response” value (OPRK1; OPRK1, 1μM) was 1.02.
